Experimental data published in patent US20040235784A1, “Combination preparations of 3-n-formylhydroxylaminopropyl phosphonic acid derivatives or 3-n-acetylhydroxylaminopropyl phosphonic acid derivatives combined with specific pharmaceutical active agents” (priority 2000, published 2004).

Test system: Plasmodium falciparum strains Dd2, 3D7 and HB3
Test: Sensitivity of Plasmodium falciparum to fosmidomycin in combination with different compounds, semi-automatic test by [3H]-hypoxanthin incorporation into parasite DNA
Format: cell-based
Details: drug in combination with fosmidomycin, sum FIC <1 synergism, >1 antagonism, =1 addition
Procedure: The IC50-values of fosmidomycin and the respective combination partner were determined for the single compounds and in different ratios of mixture on microtitreplates. The results were defined as sum of fractional inhibitory concentration (sum fractional inhibitory concentration, FIC):
sum FIC=IC50 of fosmidomycin in mixture/IC50 of fosmidomycin alone+IC50 of the combination partners in mixture/IC50 of combination partner alone
Sum FIC-values <1 represent synergism, values >1 antargonism and values=1 addition.

Structure (SMILES) | sum FIC (P. falciparum strain 3D7) | sum FIC (P. falciparum strain Dd2) | sum FIC (P. falciparum strain HB3)
CC[C@H]1OC(=O)[C@H](C)[C@@H](O[C@H]2C[C@@](C)(OC)[C@@H](O)[C@H](C)O2)[C@H](C)[C@@H](O[C@@H]2O[C@H](C)C[C@H](N(C)C)[C@H]2O)[C@](C)(O)C[C@@H](C)CN(C)[C@H](C)[C@@H](O)[C@]1(C)O [azithromycin] | 0.74 | 0.86 | 0.85
CCCCN(CCCC)CC(O)c1cc(Cl)cc2c1-c1ccc(Cl)cc1/C2=C/c1ccc(Cl)cc1 (stereo not drawn) [lumefantrin] | 1.21 | 1.20 | 1.08
